Results taken from US5334761A, “Cationic lipids” (Life Technologies, Inc., priority 1992, dated 1994).
Counter-ions that a name gives are not always drawn.

Key:
[1] = test system: NIH-3T3 cells; assay: CAT transient transfection; type: cell-based, mouse
Procedure: (§1) A one-to-one mixture (by weight) of the desired lipid and dioleylphosphatidyl ethanolamine was prepared in CHCl3. The CHCl3 was removed on the rotary evaporator to obtain a thin film of lipid mixture. The mixture was hydrated with enough water to obtain approximately 1.25 mg of lipid per ml of solution. The solution was passed through a microfluidizer twice and diluted to 1 mg/ml. The liposome formulation was then filtered through a 0.2 μ filter. Compound 8 was also formulated without DOPE either by sonication at 1 mg/ml in water or by dissolving a dried lipid film with ethanol and then adding water to give a final concentration of 2.5 mg/ml. Ethanol was 10% of that volume. In some instances, this was further diluted with water to 1 mg/ml, 4% ethanol.
(§2) Baby hamster kidney (BHK-21) , COS-7, HeLa-S3 cells, and normal human fibroblasts isolated from newborn foreskin dermis were grown in Dulbecco's-modified Eagle's medium (DMEM) containing 10% fetal bovine serum (FBS), 2 mM L-glutamine (gln), 0.1 mM MEM nonessential amino acids (NEAA), 100 U/ml penicillin, and 100 μg/ml streptomycin. NIH-3T3 cells were grown in DMEM containing 10% calf serum (CS), 2 mMgln, 0.1 mM NEAA 100 U/ml penicillin, and 100 μg/ml streptomycin. PC12 cells were grown in DMEMcontaining 10% horse serum, 5% FBS, 2 mM gln, 0 1 mMNEAA, 100 U/ml penicillin and 100 μ/ml streptomycin. Jurkat cells (human lymphoid cell line) were grown in RPMI-1640 supplemented with 10% FBS, 2mML-glutamine, 100 U/ml penicillin, and 100 μg/ml streptomycin. Human keratinocytes were isolated from newborn foreskin epidermis and cultured in Keratinocyte Growth Medium (Clonetics, San Diego, Ca.). All cell lines were maintained in a humidified incubator with a 5% CO2 atmosphere at 37° C.
(§3) pSV2CAT (5.0 Kb) was described previously (Gorman, C. M. et al. (1982) Mol. Cell. Biol. 2:1044). pCMVCAT (5.0 Kb) was also described previously (Foecking M. K. and Hofstetter, H. (1986) Gene 45:101). Plasmid DNA was purified by isopycnic centrifugation in CsCl/EtBr gradients after recovery by alkaline lysis (Maniatis, T. et al. (1982) in Molecular Cloning: A Laboratory Manual, Cold Spring Harbor Laboratory, Cold Spring Harbor, N.Y., pp. 90-91).
(§4) For transient transfection of pSV2CAT DNA or pCMVCAT DNA, cells were plated in 6-well tissue culture dishes (35 mm wells) and incubated overnight to approximately 60% confluency. To transfect cells in one well, 1-2 μg of pSV2CAT DNA or pCMVCAT DNA was diluted in 100 μl Opti-MEM I. Cationic lipids were diluted separately in another 100 μl aliquot of Opti-MEM I. The two solutions were then mixed in a polystyrene tube, incubated for 10-15 min at room temperature to allow the formation of a DNA-liposome complex, and diluted to one ml by adding 0.8 ml Opti-MEM I or DMEM containing 5% fetal bovine serum (FBS), 2 mMgln, 0.1 mMNEAA, and lacking antibiotics. The cells were washed once with Opti-MEM I or serum-free DMEM, and the DNA-liposome complex was added directly to the cells. After a six hr incubation at 37° C., the transfection complexes were removed and two ml of DMEM containing 10% FBS, 2 mMgln, 0.2 mMNEAA, 100 U/ml penicillin, and 100 μg/ml streptomycin, was added to each well. Note: human keratinocytes were cultured and transfected in Keratinocyte Growth Medium. Cells were incubated for an additional 48 hrs and lysed in situ by freeze-thawing once or twice in 300 μl 0.1M Tris-HC1, pH 7.8-8.0 containing 0 1% Triton X-100. Cell lysates were assayed for CAT activity.
(§5) Cell lysates were assayed for CAT activity as described by Neumann et al. (1987) BioTechniques 5:444 using [^14 C]-butyryl coenzyme A (New England Nuclear, Boston, Mass.). The enzyme reactions were incubated for 2 hrs at 37° C., overlayed with 3.0 ml Econofluor (New England Nuclear) and then incubated for an additional 2 hrs to allow diffusion of the acetylated chloramphenicol into the scintillation fluid. CAT activity was determined by measuring radioactivity in a liquid scintillation counter. […]

[2] = test system: NIH-3T3 cells; assay: % protein (toxicity estimate, Bradford) after transfection; type: cell-based, mouse
Procedure: as §1
Baby hamster kidney (BHK-21) , COS-7, HeLa-S3 cells, and normal human fibroblasts isolated from newborn foreskin dermis were grown in Dulbecco's-modified Eagle's medium (DMEM) containing 10% fetal bovine serum (FBS), 2 mM L-glutamine (gln), 0.1 mM MEM nonessential amino acids (NEAA), 100 U/ml penicillin, and 100 μg/ml streptomycin. […]
The "% protein" column indicates the relative amount of protein in the sample tested for CAT activity and therefore provides a way to estimate toxicity of the compounds being tested. […] Protein was measured using a commercially available Bradford protein assay (BioRad Laboratories, Richmond, Ca.). […]

[3] = test system: COS-7 cells; assay: CAT transient transfection; type: cell-based
Procedure: as §1, §2, §3, §4, §5

[4] = test system: normal human fibroblasts; assay: CAT transient transfection; type: cell-based
Procedure: as §1, §2, §3, §4, §5

[5] = test system: normal human keratinocytes; assay: CAT transient transfection; type: cell-based; settings: keratinocytes
Procedure: as §1, §2, §3, §4, §5

[6] = test system: Jurkat cells; assay: CAT transient transfection; type: cell-based, human
Procedure: as §1, §2, §3
For transient nuclear expression of pSV2CAT or pCMVCAT in Jurkat cells, cells were washed with Opti-MEM I or serum-free RPMI 1640 containing 2 mM gln and plated in six-well plates at a density of 3×10^6 cells per well in 0.8 ml Opti-MEM I or RPMI 1640. For each transfection, 5 μg pSV2CAT DNA or 2 μg pCMVCAT DNA was diluted in 100 μl Opti-MEM I. Lipids were diluted separately in another 100 μl aliquot of Opti-MEMI. The two solutions were then mixed in a polystyrene tube and incubated for 10-15 min at room temperature. The DNA-liposome complex was added to the cell suspensions and incubated 6 hours at 37° C., after which 4 ml growth medium were added per well (RPMI-1640; 10% FBS). Phorbol myristate acetate (Sigma Chemical Co., St. Louis, Mo.) and phytohemagglutinin (Sigma) were also added to a final concentration of 50 ng/ml and 1 μg/ml, respectively, to activate the cells. Cells were harvested at approximately 48 hours post-transfection by centrifugation. Cell lysates were prepared by resuspending cell pellets at 0° C. in 0.1 M Tris-HC1 pH 8.0 containing 0.1% Triton X-100 and freeze-thawing once. Cell lysates were cleared by centrifugation and assayed for CAT activity.
as §5

## CCCCCCCC/C=C\CCCCCCCCOCC(C[N+](C)(C)CCNC(=O)C(CCCNCCCN)NCCCN)OCCCCCCCC/C=C\CCCCCCCC (stereo not drawn) [Compound 8, 1-Propanaminium, N-[2-[[2,5-bis[(3-amino]-1-oxopentyl]amino]ethyl]-n,n-dimethyl-2,3,-bis(9-octadecenyloxy)-, tetra(trifluoroacetate) salt]
[1]; 15 μg lipid, 2 μg pCMVCAT, 6 h DMEM
  CAT ACTIVITY: 30,488 CPM/150 ul
[1]; NIH-3T3
  DNA transfection (in words): highly effective
[2]
  toxicity (in words): minimal toxicity
[3]; 12 μg lipid, 1 μg pSV2CAT, 6 h DMEM
  CAT ACTIVITY: 14,282 CPM/150 ul
[3]; Cos-7
  DNA transfection (in words): highly effective
[4]
  DNA transfection (in words): successfully transfected
[5]
  DNA transfection (in words): highly effective
[6]; 15 μg lipid, 2 μg pCMVCAT, 6 h RPMI1640
  CAT ACTIVITY: 44,996 CPM/150 ul
[6]; Jurkat
  DNA transfection (in words): highly effective
